Experimental data reported in BigSolDB 2.1.

CC[C@H](C)[C@H]1O[C@]2(CC[C@@H]1C)C[C@@H]1C[C@@H](C/C=C(\C)[C@@H](O[C@H]3C[C@H](OC)[C@@H](O[C@H]4C[C@H](OC)[C@@H](O)[C@H](C)O4)[C@H](C)O3)[C@@H](C)/C=C/C=C3\CO[C@@H]4[C@H](O)C(C)=C[C@@H](C(=O)O1)[C@]34O)O2
solubility (mole fraction)
Conditions | 293.2 K | 298.2 K | 303.2 K | 308.2 K | 313.2 K
in isopropanol | 0.0675 | 0.0823 | 0.0915 | 0.0967 | 0.106
in n-propanol | 0.089 | 0.105 | 0.115 | 0.122 | 0.136
in water | 5.1e-06 | 5.6e-06 | 6.1e-06 | 6.5e-06 | 6.9e-06
